{"source": "ChEMBL document CHEMBL1201862", "about": "“PubChem BioAssay data set” (2004)", "target": "Envelope glycoprotein gp160 (Human immunodeficiency virus 1, UniProt Q6QLK5)", "sequence (Q6QLK5 whole entry, the tested form may be a part)": "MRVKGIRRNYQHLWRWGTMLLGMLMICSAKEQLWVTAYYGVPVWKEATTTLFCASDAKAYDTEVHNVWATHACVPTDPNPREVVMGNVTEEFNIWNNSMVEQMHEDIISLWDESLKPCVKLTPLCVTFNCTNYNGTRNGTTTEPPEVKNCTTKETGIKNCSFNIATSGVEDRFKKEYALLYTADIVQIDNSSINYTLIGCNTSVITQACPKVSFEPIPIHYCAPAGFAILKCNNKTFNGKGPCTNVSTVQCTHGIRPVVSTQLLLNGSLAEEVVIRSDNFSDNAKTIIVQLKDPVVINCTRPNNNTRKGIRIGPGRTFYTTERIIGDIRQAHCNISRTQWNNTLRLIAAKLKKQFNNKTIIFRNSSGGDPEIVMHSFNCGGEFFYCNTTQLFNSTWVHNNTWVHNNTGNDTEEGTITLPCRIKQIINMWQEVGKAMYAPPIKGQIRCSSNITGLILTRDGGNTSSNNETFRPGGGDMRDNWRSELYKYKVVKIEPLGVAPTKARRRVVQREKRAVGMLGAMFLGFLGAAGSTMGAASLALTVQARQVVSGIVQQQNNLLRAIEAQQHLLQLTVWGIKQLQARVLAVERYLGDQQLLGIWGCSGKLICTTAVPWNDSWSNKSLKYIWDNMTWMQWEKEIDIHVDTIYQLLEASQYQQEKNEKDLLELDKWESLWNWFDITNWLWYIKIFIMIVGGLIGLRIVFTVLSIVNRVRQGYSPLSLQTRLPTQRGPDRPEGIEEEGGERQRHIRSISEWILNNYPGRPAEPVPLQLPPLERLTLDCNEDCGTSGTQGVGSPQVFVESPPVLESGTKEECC", "assay": "cell-free HIV fusion peptide-binding blockers – biochemical, uHTS, fluorescence dequenching, […] (AID 1986)", "note": "Calls of active or inactive are those of the source. Rule as the data show it: actives have a measured IC50 and inactives only a lower limit."}
{"compound": "O=C(O)CN1C(=O)/C(=C\\c2cccc(OCc3ccc(Cl)cc3Cl)c2)SC1=S", "values": [{"measurement": "IC50", "result": "13.1 µM (active)"}]}
{"compound": "O=C(O)c1ccccc1NS(=O)(=O)c1ccc(NNC(=S)Nc2ccc(OC(F)F)cc2)c([N+](=O)[O-])c1", "values": [{"measurement": "IC50", "result": "8.21 µM (active)"}]}
